Measured values published in PubChem BioAssay (NCI).
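Results reflect a 48-hour exposure of cells in 96-well plates to compound at five concentrations. TGI is the concentration that stops growth completely.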

Tested on: HCT-116 colon
Experiment: NCI tumour cell line growth inhibition, 48 h

Compound | TGI [µM]
CCCC(=O)OCC1OC(n2ccc(N)nc2=O)C(OC(=O)CCC)C1OC(=O)CCC (centres undefined) | > 100
O=S(=O)(O)CCCc1cccc2ccccc12 | > 100
CC(=O)OC1/C=C(\C)C(OC(C)=O)C/C=C(/C)CCC2C(/C=C/C1=O)C2(C)C (centres undefined) | > 100
NC(CCCCCP(=O)(c1ccccc1)C1C=CC=CC1)C(=O)O (centres undefined) | > 100
COc1ccc(/C=C2\CCNC2=O)cc1 | > 100
CC(C)Cc1ccc(C(C)C(=O)N2CCN(/C=C/c3ccccc3)CC2)cc1 (centres undefined) | 26.3
CO/N=C(\C)c1ccc(Nc2nc3ccccc3c3occc23)cc1 | 27.9
O=c1cc[nH]c(=O)[nH]1 | > 821
O=P(O)(O)CCP(=O)(O)O | > 100
O=c1sc2ccccc2n1CC1CS1 (centres undefined) | > 100
Cc1n(Cc2ccccc2)c2c([n+]1C)C(=O)c1ccccc1C2=O | 0.512
O=C1c2cccc3c2C(=O)c2c(cccc21)OCCOCCOCCOCCO3 | > 100
C=CCc1c(O)c2c(c3oc(=O)cc(C)c13)CC(C)O2 (centres undefined) | > 100
CN(C)c1ccc(/C=c2/c3ccccc3n3c2c2c([n+]3C)CCCC2)cc1 | 0.913
CCOc1ncn(-c2ccc(NC(=S)Nc3ncccn3)cc2)n1 | > 100
CC1(C)OC(C(=O)Nc2cc3c4ccccc4ccc3c3ccccc23)C(C(=O)N2CCCCC2)O1 (centres undefined) | > 100
CCN(CC)CCNc1ccc2nnn3c4ccc(OCCN(CC)CC)cc4c(=O)c1c23 | > 100
CC(=O)Nc1ccc(N=Nc2c(O)c(S(=O)(=O)O)cc3cc(S(=O)(=O)O)ccc23)cc1 | > 100
Nc1c(C(=O)O)nnc2ccc(Cl)cc12 | > 100
O=C(O)C(O)C(O)C(O)C(O)c1nc2ccccc2s1 (centres undefined) | 30.1

Tested on: MCF7 breast
Experiment: NCI tumour cell line growth inhibition, 48 h

Compound | TGI [µM]
CCCC(=O)OCC1OC(n2ccc(N)nc2=O)C(OC(=O)CCC)C1OC(=O)CCC (centres undefined) | > 100
O=S(=O)(O)CCCc1cccc2ccccc12 | > 100
NC(CCCCCP(=O)(c1ccccc1)C1C=CC=CC1)C(=O)O (centres undefined) | > 100
COc1ccc(/C=C2\CCNC2=O)cc1 | > 100
CC(C)Cc1ccc(C(C)C(=O)N2CCN(/C=C/c3ccccc3)CC2)cc1 (centres undefined) | 33.7
CO/N=C(\C)c1ccc(Nc2nc3ccccc3c3occc23)cc1 | 31
O=c1cc[nH]c(=O)[nH]1 | > 1000
O=P(O)(O)CCP(=O)(O)O | > 100
Cc1n(Cc2ccccc2)c2c([n+]1C)C(=O)c1ccccc1C2=O | 0.079
CN(C)c1ccc(/C=c2/c3ccccc3n3c2c2c([n+]3C)CCCC2)cc1 | 0.321
CCOc1ncn(-c2ccc(NC(=S)Nc3ncccn3)cc2)n1 | > 100
CC1(C)OC(C(=O)Nc2cc3c4ccccc4ccc3c3ccccc23)C(C(=O)N2CCCCC2)O1 (centres undefined) | > 29.7
CCN(CC)CCNc1ccc2nnn3c4ccc(OCCN(CC)CC)cc4c(=O)c1c23 | > 100
Nc1c(C(=O)O)nnc2ccc(Cl)cc12 | > 100
O=C(O)C(O)C(O)C(O)C(O)c1nc2ccccc2s1 (centres undefined) | 33.1

Tested on: OVCAR-4 ovarian
Experiment: NCI tumour cell line growth inhibition, 48 h

Compound | TGI [µM]
CCCC(=O)OCC1OC(n2ccc(N)nc2=O)C(OC(=O)CCC)C1OC(=O)CCC (centres undefined) | > 100
O=S(=O)(O)CCCc1cccc2ccccc12 | > 100
CC(=O)OC1/C=C(\C)C(OC(C)=O)C/C=C(/C)CCC2C(/C=C/C1=O)C2(C)C (centres undefined) | > 100
NC(CCCCCP(=O)(c1ccccc1)C1C=CC=CC1)C(=O)O (centres undefined) | > 100
COc1ccc(/C=C2\CCNC2=O)cc1 | > 100
CC(C)Cc1ccc(C(C)C(=O)N2CCN(/C=C/c3ccccc3)CC2)cc1 (centres undefined) | 25.6
O=c1cc[nH]c(=O)[nH]1 | > 1000
O=P(O)(O)CCP(=O)(O)O | > 100
O=c1sc2ccccc2n1CC1CS1 (centres undefined) | > 100
Cc1n(Cc2ccccc2)c2c([n+]1C)C(=O)c1ccccc1C2=O | 0.812
O=C1c2cccc3c2C(=O)c2c(cccc21)OCCOCCOCCOCCO3 | > 100
C=CCc1c(O)c2c(c3oc(=O)cc(C)c13)CC(C)O2 (centres undefined) | > 100
CN(C)c1ccc(/C=c2/c3ccccc3n3c2c2c([n+]3C)CCCC2)cc1 | 4.58
CCOc1ncn(-c2ccc(NC(=S)Nc3ncccn3)cc2)n1 | > 100
CC1(C)OC(C(=O)Nc2cc3c4ccccc4ccc3c3ccccc23)C(C(=O)N2CCCCC2)O1 (centres undefined) | > 100
CCN(CC)CCNc1ccc2nnn3c4ccc(OCCN(CC)CC)cc4c(=O)c1c23 | 41.3
COc1cc2c(cc1OC)C(CC1=C(c3ccccc3)CN3CCc4cc(OC)c(OC)cc4C3C1)NCC2 (centres undefined) | 29.8
CC(=O)Nc1ccc(N=Nc2c(O)c(S(=O)(=O)O)cc3cc(S(=O)(=O)O)ccc23)cc1 | > 100
Nc1c(C(=O)O)nnc2ccc(Cl)cc12 | > 100
O=C(O)C(O)C(O)C(O)C(O)c1nc2ccccc2s1 (centres undefined) | 50.2

Tested on: M14 melanoma
Experiment: NCI tumour cell line growth inhibition, 48 h

Compound | TGI [µM]
O=S(=O)(O)CCCc1cccc2ccccc12 | > 100
CC(=O)OC1/C=C(\C)C(OC(C)=O)C/C=C(/C)CCC2C(/C=C/C1=O)C2(C)C (centres undefined) | > 100
NC(CCCCCP(=O)(c1ccccc1)C1C=CC=CC1)C(=O)O (centres undefined) | > 100
CO/N=C(\C)c1ccc(Nc2nc3ccccc3c3occc23)cc1 | 30.2
O=P(O)(O)CCP(=O)(O)O | > 100
O=c1sc2ccccc2n1CC1CS1 (centres undefined) | > 100
Cc1n(Cc2ccccc2)c2c([n+]1C)C(=O)c1ccccc1C2=O | 0.282
O=C1c2cccc3c2C(=O)c2c(cccc21)OCCOCCOCCOCCO3 | > 100
C=CCc1c(O)c2c(c3oc(=O)cc(C)c13)CC(C)O2 (centres undefined) | > 100
CN(C)c1ccc(/C=c2/c3ccccc3n3c2c2c([n+]3C)CCCC2)cc1 | 1.5
CCOc1ncn(-c2ccc(NC(=S)Nc3ncccn3)cc2)n1 | 91.3
CC1(C)OC(C(=O)Nc2cc3c4ccccc4ccc3c3ccccc23)C(C(=O)N2CCCCC2)O1 (centres undefined) | > 100
CCN(CC)CCNc1ccc2nnn3c4ccc(OCCN(CC)CC)cc4c(=O)c1c23 | > 100
COc1cc2c(cc1OC)C(CC1=C(c3ccccc3)CN3CCc4cc(OC)c(OC)cc4C3C1)NCC2 (centres undefined) | 46.3
CC(=O)Nc1ccc(N=Nc2c(O)c(S(=O)(=O)O)cc3cc(S(=O)(=O)O)ccc23)cc1 | > 100
Nc1c(C(=O)O)nnc2ccc(Cl)cc12 | > 100
O=C(O)C(O)C(O)C(O)C(O)c1nc2ccccc2s1 (centres undefined) | 45.7

Tested on: MDA-MB-435
Experiment: NCI tumour cell line growth inhibition, 48 h

Compound | TGI [µM]
O=S(=O)(O)CCCc1cccc2ccccc12 | > 100
NC(CCCCCP(=O)(c1ccccc1)C1C=CC=CC1)C(=O)O (centres undefined) | > 100
CO/N=C(\C)c1ccc(Nc2nc3ccccc3c3occc23)cc1 | 31.1
O=P(O)(O)CCP(=O)(O)O | > 100
Cc1n(Cc2ccccc2)c2c([n+]1C)C(=O)c1ccccc1C2=O | 0.33
CN(C)c1ccc(/C=c2/c3ccccc3n3c2c2c([n+]3C)CCCC2)cc1 | 0.717
CCOc1ncn(-c2ccc(NC(=S)Nc3ncccn3)cc2)n1 | > 100
CC1(C)OC(C(=O)Nc2cc3c4ccccc4ccc3c3ccccc23)C(C(=O)N2CCCCC2)O1 (centres undefined) | > 100
CCN(CC)CCNc1ccc2nnn3c4ccc(OCCN(CC)CC)cc4c(=O)c1c23 | > 100
CC(=O)Nc1ccc(N=Nc2c(O)c(S(=O)(=O)O)cc3cc(S(=O)(=O)O)ccc23)cc1 | > 100
Nc1c(C(=O)O)nnc2ccc(Cl)cc12 | > 100
O=C(O)C(O)C(O)C(O)C(O)c1nc2ccccc2s1 (centres undefined) | 31.8

Tested on: TK-10 renal
Experiment: NCI tumour cell line growth inhibition, 48 h

Compound | TGI [µM]
O=S(=O)(O)CCCc1cccc2ccccc12 | > 100
CC(=O)OC1/C=C(\C)C(OC(C)=O)C/C=C(/C)CCC2C(/C=C/C1=O)C2(C)C (centres undefined) | > 100
NC(CCCCCP(=O)(c1ccccc1)C1C=CC=CC1)C(=O)O (centres undefined) | > 100
CO/N=C(\C)c1ccc(Nc2nc3ccccc3c3occc23)cc1 | 25.4
O=P(O)(O)CCP(=O)(O)O | > 100
